Data taken from PubChem BioAssay AID2060507 (Molecular Pharmacology Branch, DTP, NCI, 2025).

Test system: 519858-162-T-J1-PDC complex spheroid viability
Assay: Anticancer human tumor 519858-162-T-J1-PDC patient-derived colon adenocarcinoma cell line growth inhibition [GQUAD]
Conditions: for IC50: curve of first compound; for viability, T/C: stronger effect = lower value
Excerpt: DNA G-quadruplex Stabilizer Agents in Combinations in Complex Spheroids
A high-throughput screen of multi-cell type tumor spheroids was designed to identify active combinations of DNA G-quadruplex stabilizer agents and targeted small molecules. Complex spheroids include a stromal component modeled by human endothelial cells (HUVEC) and fibroblasts modeled by human mesenchymal stem cells (MSCs). The concentration ranges selected for each drug and investigational agent were based upon clinically achievable concentrations if the clinical Cmax of the agent was known.
Compounds. The drugs and investigational agents: pidnarulex (CX-5461; NSC782164), APTO-253 (NSC789042), BRACO-19 (NSC847499), peposertib (NSC802822), ceralasertib (NSC780249), elimusertib (NSC800525), camonsertib (NSC841442), AZD-1390 (NSC803789), olaparib (NSC753686), talazoparib (NSC767125), ART-558 (NSC835418), sotorasib (NSC818433), MRTX-1133 (NSC836407), SN-38 (NSC673596), topotecan (NSC609699), etoposide (NSC141540), doxorubicin (NSC123127), gemcitabine (NSC613327), 5-fluorouracil (NSC19893), paclitaxel (NSC125973), vemurafenib (NSC761431), panobinostat (NSC761190), R-306465 (JNJ-16241199; NSC773264), adavosertib (NSC754352), TP-3654 (NSC805149), carboplatin (NSC241240), KSQ-4279 (NSC840948), and staurosporine (NSC755774) were obtained from the National Cancer Institute (NCI) Developmental Therapeutics Program Chemical Repository (34). The FDA-approved anticancer drug set is available from the NCI Developmental Therapeutics Program. […] The stock solutions were prepared in dimethyl sulfoxide (DMSO, Sigma-Aldrich, St. Louis, MO, cat. D2650) at 800-fold the tested concentration and stored at -70 degrees C prior to their use. All drugs and investigational agents were tested over a range starting from a high concentration at or near the clinical Cmax and decreasing in half-log increments. If the clinical Cmax for an agent had not been determined, the highest concentration tested was 10 microM.
2.3 Cell Culture. All cells were maintained in an incubator at 37 degrees C and 5% CO2 with 95% humidity. The PDC lines were cultured according to standard operating procedures established by the NCI PDMR. All PDCs were thawed and cultured in Matrigel-coated flasks prepared with a working solution of 1X Ham's F-12 nutrient mix, without supplementation (Invitrogen, cat. 11765054), 100 U/mL penicillin-streptomycin (Invitrogen, cat. 15140122), and 2.5% Matrigel (Corning Inc., cat. 354248) for the first three passages. The 857933-349-R-J2-PDC line was cultured in 6C/Colon 1B media, which includes advanced DMEM/F-12 (Thermo Fisher Scientific, cat. 12634028), 10 mM HEPES (Thermo Fisher Scientific, cat. 15630080), 1X GlutaMAX supplement (Thermo Fisher Scientific, cat. 35050061), 0.1 mg/mL primocin (InvivoGen, cat. ant-pm-2), 10% defined fetal bovine serum, heat inactivated (HyClone Laboratories Inc., cat. SH30070.03HI), 50% L-WRN conditioned media (ATCC, cat. CRL-3276), 1.25 mM N-Acetyl-L-cysteine (Sigma-Aldrich, cat. A9165), 10 mM nicotinamide (Sigma-Aldrich, cat. N0636), 1X B-27 supplement (Thermo Fisher Scientific, cat. 17504044), 1X N-2 supplement (Thermo Fisher Scientific, cat. 17502048), 10 microM Y-27632 dihydrochloride (Tocris Bioscience, cat. 1254), and 50 ng/mL human EGF recombinant protein (Thermo Fisher Scientific, cat. PHG0311). The 485176-168-R4-J1-PDC line was cultured in Panc media, which includes all 6C/Colon 1B media components plus 100 ng/mL human FGF-10 (Thermo Fisher Scientific, cat. 100-26), 500 nM SB-431542 (Selleckchem, cat. S1067), and gastrin (Tocris, cat. 3006).
[…]
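Further: spheroids exposed to compounds for 7 days.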
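Wherever viability, T/C is given: 100% = DMSO vehicle control viability.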

In the case of `C=CCn1c(=O)c2cnc(Nc3ccc(N4CCN(C)CC4)cc3)nc2n1-c1cccc(C(C)(C)O)n1` + CN(C)c1ccc(Nc2c3ccc(NC(=O)CCN4CCCC4)cc3nc3cc(NC(=O)CCN4CCCC4)ccc23)cc1, the IC50 (second compound 0.0316 µM) is reported as over 10 µM, the IC50 (second compound 0.1 µM) is reported as over 10 µM and the IC50 (second compound 0.316 µM) is reported as over 10 µM. It also gave an IC50 (second compound 1 µM) of over 10 µM, an IC50 (second compound 3.16 µM) of over 10 µM and an IC50 (second compound 10 µM) of over 10 µM. For the same compound, the viability, T/C (second compound 0.0316 µM, first compound 0.0316 µM) was 95.3%, the viability, T/C (second compound 0.0316 µM, first compound 0.1 µM) was 120% and the viability, T/C (second compound 0.0316 µM, first compound 0.316 µM) was 117%. The viability, T/C (second compound 0.0316 µM, first compound 1 µM) was 83.3%, the viability, T/C (second compound 0.0316 µM, first compound 3.16 µM) was 75.2% and the viability, T/C (second compound 0.0316 µM, first compound 10 µM) was 120%. For the same compound, the viability, T/C (second compound 0.1 µM, first compound 0.0316 µM) was 150%, the viability, T/C (second compound 0.1 µM, first compound 0.1 µM) was 86.8% and the viability, T/C (second compound 0.1 µM, first compound 0.316 µM) was 92.5%. The viability, T/C (second compound 0.1 µM, first compound 1 µM) was 64.6%, the viability, T/C (second compound 0.1 µM, first compound 3.16 µM) was 88.4% and the viability, T/C (second compound 0.1 µM, first compound 10 µM) was 67.6%. It also gave a viability, T/C (second compound 0.316 µM, first compound 0.0316 µM) of 112%, a viability, T/C (second compound 0.316 µM, first compound 0.1 µM) of 89.7% and a viability, T/C (second compound 0.316 µM, first compound 0.316 µM) of 88.9%. The viability, T/C (second compound 0.316 µM, first compound 1 µM) was 63.8%, the viability, T/C (second compound 0.316 µM, first compound 3.16 µM) was 85.1% and the viability, T/C (second compound 0.316 µM, first compound 10 µM) was 104%. For the same compound, the viability, T/C (second compound 1 µM, first compound 0.0316 µM) was 72.3%, the viability, T/C (second compound 1 µM, first compound 0.1 µM) was 74.7% and the viability, T/C (second compound 1 µM, first compound 0.316 µM) was 61.4%. It also gave a viability, T/C (second compound 1 µM, first compound 1 µM) of 65%, a viability, T/C (second compound 1 µM, first compound 3.16 µM) of 80.4% and a viability, T/C (second compound 1 µM, first compound 10 µM) of 80.2%. The viability, T/C (second compound 3.16 µM, first compound 0.0316 µM) was 77.7%, the viability, T/C (second compound 3.16 µM, first compound 0.1 µM) was 62% and the viability, T/C (second compound 3.16 µM, first compound 0.316 µM) was 66.7%. For the same compound, the viability, T/C (second compound 3.16 µM, first compound 1 µM) was 67.6%, the viability, T/C (second compound 3.16 µM, first compound 3.16 µM) was 62.1% and the viability, T/C (second compound 3.16 µM, first compound 10 µM) was 91.1%. It also gave a viability, T/C (second compound 10 µM, first compound 0.0316 µM) of 78%, a viability, T/C (second compound 10 µM, first compound 0.1 µM) of 63.8% and a viability, T/C (second compound 10 µM, first compound 0.316 µM) of 57.7%. It also gave a viability, T/C (second compound 10 µM, first compound 1 µM) of 62%, a viability, T/C (second compound 10 µM, first compound 3.16 µM) of 89.3% and a viability, T/C (second compound 10 µM, first compound 10 µM) of 137%.
